Data on 62 molecules can be found in ChEMBL document CHEMBL2440115, “Discovery and characterization of synthetic 4'-hydroxyflavones-New CK2 inhibitors from flavone family” (Bioorg Med Chem, 2013).

Experiment [1] has as its target Casein kinase II (Homo sapiens, UniProt P19784+P67870+P68400). The experiment can be described thus: Inhibition of recombinant human CK2 using RRRDDDSDDD as substrate after 20 mins by beta counting analysis in presence of [gamma-labeled 32P]ATP. Type of experiment: protein-complex assay.
Experiment [2] concerns the target Casein kinase II (Homo sapiens) (UniProt P67870+P68400+P19784). Kind of experiment: Inhibition of recombinant human CK2 using RRRDDDSDDD as substrate assessed as residual activity at 10 uM after 20 mins by beta counting analysis in presence of [gamma-labeled 32P]ATP relative to control. Type of experiment: protein-complex assay.

Sequence of Casein kinase II (P67870 whole entry): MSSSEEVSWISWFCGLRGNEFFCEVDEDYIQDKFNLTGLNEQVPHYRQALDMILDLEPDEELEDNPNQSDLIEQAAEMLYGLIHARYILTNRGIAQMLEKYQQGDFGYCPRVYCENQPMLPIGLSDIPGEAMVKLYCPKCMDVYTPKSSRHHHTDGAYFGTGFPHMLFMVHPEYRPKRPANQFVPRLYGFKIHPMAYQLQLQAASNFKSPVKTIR
Sequence of Casein kinase II (P68400 whole entry): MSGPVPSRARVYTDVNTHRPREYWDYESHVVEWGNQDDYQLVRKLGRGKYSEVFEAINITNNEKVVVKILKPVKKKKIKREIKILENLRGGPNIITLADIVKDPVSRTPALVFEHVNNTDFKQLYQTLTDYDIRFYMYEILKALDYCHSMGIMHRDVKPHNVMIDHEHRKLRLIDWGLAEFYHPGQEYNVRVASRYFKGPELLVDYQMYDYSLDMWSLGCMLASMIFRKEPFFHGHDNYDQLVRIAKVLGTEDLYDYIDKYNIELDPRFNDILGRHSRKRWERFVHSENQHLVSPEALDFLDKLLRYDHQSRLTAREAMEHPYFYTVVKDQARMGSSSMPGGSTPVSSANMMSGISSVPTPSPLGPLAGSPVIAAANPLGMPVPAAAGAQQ
Sequence of Casein kinase II (P19784 whole entry): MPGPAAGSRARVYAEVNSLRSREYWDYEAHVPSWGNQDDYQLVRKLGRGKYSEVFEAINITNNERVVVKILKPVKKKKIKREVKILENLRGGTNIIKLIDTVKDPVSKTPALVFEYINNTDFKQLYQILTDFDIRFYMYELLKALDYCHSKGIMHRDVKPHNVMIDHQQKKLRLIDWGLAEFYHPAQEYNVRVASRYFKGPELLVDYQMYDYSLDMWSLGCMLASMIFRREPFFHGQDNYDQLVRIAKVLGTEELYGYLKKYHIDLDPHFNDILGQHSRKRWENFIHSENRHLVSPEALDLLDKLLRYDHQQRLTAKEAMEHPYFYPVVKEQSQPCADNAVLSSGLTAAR

With `O=c1cc(-c2cccc(Br)c2)oc2ccc(O)cc12`, in experiment [1], the 50% inhibitory concentration (IC50) is 19 µM. The Activity in experiment [2] stood at 29%.

`Cc1cc(C)c2c(=O)cc(-c3ccc(N(C)C)cc3)oc2c1`: in experiment [1], the IC50 was over 30 µM. In experiment [2], the Activity was 58%.

For `CN(C)c1ccc(-c2oc3ccccc3c(=O)c2O)cc1`, in experiment [1], the 50% inhibitory concentration (IC50) is over 30 µM. Also, in experiment [2], the Activity turned out to be 73%.

As for `CCOc1cc(-c2cc(=O)c3cc(C)ccc3o2)ccc1O`, the IC50 in experiment [1] came out at 8 µM. In addition, the Activity in experiment [2] turned out to be 18%.

On to `COc1ccc(-c2cc(=O)c3cc(O)ccc3o2)cc1`, for which the IC50 in experiment [1] was determined as 30 µM. In addition, the Activity in experiment [2] stood at 49%.

With `COc1ccc(-c2cc(=O)c3cc(OC(C)=O)ccc3o2)cc1`, in experiment [1], the IC50 was over 30 µM. In experiment [2], the Activity worked out at 89%.

Regarding `Cc1ccc2oc(-c3ccccc3)c(O)c(=O)c2c1`, the IC50 in experiment [1] was over 30 µM. Besides, in experiment [2], the Activity was determined as 80%.

As for `COc1ccc(-c2cc(=O)c3c(CN(C)Cc4ccccc4)c(O)ccc3o2)cc1`, in experiment [1], the IC50 is over 30 µM. For the same molecule, in experiment [2], the Activity amounted to 73%.

On to `Cc1ccc(-c2oc3ccc(C)cc3c(=O)c2OCC(=O)O)cc1`, for which, in experiment [1], the IC50 was over 30 µM. In experiment [2], the Activity turned out to be 83%.

On to `Cc1ccc2oc(-c3ccc(Br)cc3)c(O)c(=O)c2c1`, for which the IC50 in experiment [1] was over 30 µM. The Activity in experiment [2] is 65%.

On to `COc1ccc(-c2oc3ccccc3c(=O)c2OC(C)=O)cc1`, for which the IC50 in experiment [1] was over 30 µM. Further, in experiment [2], the Activity amounted to 68%.

Regarding `Cc1ccc(-c2cc(=O)c3cc(O)ccc3o2)cc1`, the half-inhibitory concentration (IC50) in experiment [1] stood at 19 µM. For the same molecule, the Activity in experiment [2] amounted to 35%.

As to `Cc1cc(C)c2oc(-c3ccc(O)c(Br)c3)cc(=O)c2c1`, in experiment [1], the IC50 was determined as 0.05 µM.

Turning to `COc1cccc(-c2oc3ccc(C)cc3c(=O)c2O)c1`, the IC50 in experiment [1] stood at 25 µM. Also, the Activity in experiment [2] was determined as 47%.

For `Cc1cc(C)c2oc(-c3ccc(O)cc3)cc(=O)c2c1`, the IC50 in experiment [1] came to 1.6 µM.

For the molecule `COc1cc(-c2cc(=O)c3cc(C)cc(C)c3o2)cc(Br)c1O`, in experiment [1], the IC50 stood at 0.65 µM.

Take `COc1cc(-c2cc(=O)c3cc(Cl)cc(Cl)c3o2)cc(Cl)c1O`: the IC50 in experiment [1] came to 0.02 µM.

With `Cc1ccc2oc(-c3ccc(F)cc3)c(O)c(=O)c2c1`, the IC50 in experiment [1] is over 30 µM. Further, the Activity in experiment [2] was 60%.

As to `CCOc1cc(-c2cc(=O)c3ccccc3o2)ccc1O`, the half-inhibitory concentration (IC50) in experiment [1] was 7.5 µM. The Activity in experiment [2] was 21%.

For `COc1ccc(-c2oc3cc(C)cc(C)c3c(=O)c2OC(=O)C2COc3ccccc3O2)cc1` (stereo not given), in experiment [1], the IC50 was determined as 21 µM. For the same molecule, the Activity in experiment [2] was found to be 37%.

Regarding `COc1cc(-c2cc(=O)c3cc(C)cc(C)c3o2)cc(Cl)c1O`, the concentration for half-maximal inhibition (IC50) in experiment [1] stood at 0.09 µM.

`COc1ccc(-c2cc(=O)c3c(CN4CCOCC4)c(O)ccc3o2)cc1`: the IC50 in experiment [1] was over 30 µM. Moreover, the Activity in experiment [2] was found to be 79%.

In the case of `Cc1ccc2oc(-c3ccc(O)cc3)cc(=O)c2c1`, the IC50 in experiment [1] turned out to be 8 µM.

As to `Cc1ccc(-c2oc3ccc(C)cc3c(=O)c2O)cc1`, the IC50 in experiment [1] was over 30 µM. Besides, the Activity in experiment [2] was 56%.

Take `COc1ccc(-c2cc(=O)c3c4c(ccc3o2)OCN(c2cccc(C(F)(F)F)c2)C4)cc1`: the IC50 in experiment [1] was 15 µM. For the same molecule, the Activity in experiment [2] was determined as 18%.

Turning to `COc1ccc(-c2cc(=O)c3c(CN4CCC(C)CC4)c(O)ccc3o2)cc1`, in experiment [1], the half-inhibitory concentration (IC50) was over 30 µM. Besides, the Activity in experiment [2] stood at 68%.

In the case of `COc1cccc(-c2cc(=O)c3cc(C)cc(C)c3o2)c1O`, in experiment [1], the IC50 is over 30 µM.

As to `COc1cc(-c2cc(=O)c3c(C)c(Cl)c(C)cc3o2)ccc1O`, in experiment [1], the IC50 is 2 µM.

With `COc1cc(-c2cc(=O)c3c(CN4CCCCC4)c(O)ccc3o2)cc(OC)c1OC`, in experiment [1], the half-maximal inhibitory concentration (IC50) is over 30 µM. Further, in experiment [2], the Activity stood at 74%.

As for `COc1ccc(-c2cc(=O)c3cc(C)cc(C)c3o2)cc1O`, in experiment [1], the IC50 is over 30 µM.

Regarding `COc1ccc(-c2cc(=O)c3c4c(ccc3o2)OCN(Cc2ccco2)C4)cc1`, the IC50 in experiment [1] came out at 12 µM. In experiment [2], the Activity worked out at 17%.

Consider `COc1cc(-c2cc(=O)c3c(CN(C)Cc4ccccc4)c(O)ccc3o2)cc(OC)c1OC`, for which the half-inhibitory concentration (IC50) in experiment [1] was over 30 µM. For the same molecule, in experiment [2], the Activity worked out at 73%.

Regarding `Cc1ccc(-c2cc(=O)c3cc(C)cc(C)c3o2)cc1`, the IC50 in experiment [1] was found to be 21 µM. Moreover, the Activity in experiment [2] is 35%.

`COc1cc(-c2cc(=O)c3ccc4ccccc4c3o2)ccc1O`: in experiment [1], the concentration for half-maximal inhibition (IC50) was 0.028 µM.

As for `COc1cc(-c2cc(=O)c3ccc(C)c(C)c3o2)ccc1O`, in experiment [1], the IC50 amounted to 0.3 µM.

`COc1cc(-c2cc(=O)c3cc(Br)ccc3o2)ccc1O`: the IC50 in experiment [1] came out at 0.12 µM.

As for `COc1cc(-c2cc(=O)c3cc(C)c(C)cc3o2)ccc1O`, the IC50 in experiment [1] amounted to 3 µM.

Consider `O=c1cc(-c2ccc(F)cc2)oc2ccccc12`, for which the IC50 in experiment [1] is over 30 µM. Moreover, in experiment [2], the Activity amounted to 77%.

On to `COc1ccc(-c2oc3ccccc3c(=O)c2O)cc1`, for which the IC50 in experiment [1] was over 30 µM. In addition, the Activity in experiment [2] came out at 86%.

With `COc1cc(-c2cc(=O)c3cc(C)ccc3o2)cc(OC)c1OC`, the half-maximal inhibitory concentration (IC50) in experiment [1] is over 30 µM. In addition, the Activity in experiment [2] was determined as 92%.

Take `Cc1cc(C)c2oc(-c3cc(Br)c(O)c(Br)c3)cc(=O)c2c1`: the IC50 in experiment [1] turned out to be 0.18 µM.

As to `Cc1ccc2oc(-c3cc(Br)ccc3O)c(O)c(=O)c2c1`, the IC50 in experiment [1] amounted to 28 µM. For the same molecule, the Activity in experiment [2] was 45%.

Take `COc1ccc2oc(-c3ccc(O)c(OC)c3)cc(=O)c2c1`: in experiment [1], the IC50 turned out to be 0.2 µM.

For `COc1cc(-c2cc(=O)c3c(C)cc(C)cc3o2)ccc1O`, in experiment [1], the IC50 was 0.03 µM.

On to `Cc1cc(C)c2oc(-c3cccc(O)c3)cc(=O)c2c1`, for which the 50% inhibitory concentration (IC50) in experiment [1] was found to be 2.2 µM.

On to `Cc1ccc2oc(-c3ccccc3)c(OCC(=O)N3CCOCC3)c(=O)c2c1`, for which the IC50 in experiment [1] was over 30 µM. Further, the Activity in experiment [2] is 95%.

For `COc1ccc(-c2cc(=O)c3cc(C)ccc3o2)cc1`, the IC50 in experiment [1] is over 30 µM. For the same molecule, the Activity in experiment [2] turned out to be 73%.

Turning to `COc1ccc(-c2oc3ccc(C)cc3c(=O)c2O)cc1`, the IC50 in experiment [1] was 28 µM. The Activity in experiment [2] came out at 50%.

Take `Cc1cc(C)c2oc(-c3cc(Cl)c(O)c(Cl)c3)cc(=O)c2c1`: the IC50 in experiment [1] came out at 0.078 µM.

Take `COc1ccc(-c2oc3ccc(C)cc3c(=O)c2OCC(=O)O)cc1`: in experiment [1], the IC50 was over 30 µM. Further, the Activity in experiment [2] stood at 77%.

For the molecule `COc1cc(-c2cc(=O)c3cc(O)ccc3o2)cc(OC)c1OC`, the IC50 in experiment [1] came out at 26 µM. The Activity in experiment [2] came out at 45%.

Turning to `COc1cc(-c2cc(=O)c3cc(Cl)ccc3o2)ccc1O`, the concentration for half-maximal inhibition (IC50) in experiment [1] was determined as 0.24 µM.

With `Cc1cc(C)c2oc(-c3ccc(O)c(O)c3)cc(=O)c2c1`, the IC50 in experiment [1] amounted to 0.45 µM.

For `COc1cc(-c2cc(=O)c3cc(C)cc(C)c3o2)cc([N+](=O)[O-])c1O`, in experiment [1], the half-maximal inhibitory concentration (IC50) was determined as 0.066 µM.

As to `COc1cc(-c2cc(=O)c3ccc(C)cc3o2)ccc1O`, the 50% inhibitory concentration (IC50) in experiment [1] worked out at 0.09 µM.

In the case of `Cc1cc(C)c2oc(-c3ccc(O)c([N+](=O)[O-])c3)cc(=O)c2c1`, the IC50 in experiment [1] turned out to be 0.012 µM.

Consider `CCc1ccc2oc(-c3ccc(O)c(OC)c3)cc(=O)c2c1`, for which, in experiment [1], the concentration for half-maximal inhibition (IC50) amounted to 0.12 µM.

Regarding `COc1ccc2c(=O)cc(-c3ccc(O)c(OC)c3)oc2c1`, in experiment [1], the IC50 stood at 0.175 µM.

`COc1cc(-c2cc(=O)c3cc(NC(C)=O)ccc3o2)ccc1O`: in experiment [1], the IC50 came to 0.15 µM.

For the molecule `COc1cc(-c2cc(=O)c3cc(Cl)c(C)cc3o2)ccc1O`, the IC50 in experiment [1] worked out at 0.79 µM.

`COc1cc(-c2cc(=O)c3cc(C)ccc3o2)ccc1O`: the IC50 in experiment [1] turned out to be 0.32 µM.

For the molecule `COc1cc(-c2cc(=O)c3ccc4ccccc4c3o2)cc(Cl)c1O`, in experiment [1], the IC50 stood at 0.087 µM.

Broadly, the IC50 is the midpoint of a concentration-inhibition curve.
